Source: article PMC12644484 (Scientific Reports, 2025)
Read-outs that look alike come from different tables or passages of the source.

What was measured:
[1] = biological target: T1, RNaseH2 (Homo sapiens, UniProt O75792); assay: Fluorogenic RNaseH2 activity assay (RNA/DNA hybrid substrate); type: biochemical; conditions: fluorescence assay, four-parameter logistic fit; read-out: RNaseH2 inhibition IC50
T1 construct: made in house; host or cells: E. coli BL21 (DE3) RIPL
T1 sequence (O75792 1-299): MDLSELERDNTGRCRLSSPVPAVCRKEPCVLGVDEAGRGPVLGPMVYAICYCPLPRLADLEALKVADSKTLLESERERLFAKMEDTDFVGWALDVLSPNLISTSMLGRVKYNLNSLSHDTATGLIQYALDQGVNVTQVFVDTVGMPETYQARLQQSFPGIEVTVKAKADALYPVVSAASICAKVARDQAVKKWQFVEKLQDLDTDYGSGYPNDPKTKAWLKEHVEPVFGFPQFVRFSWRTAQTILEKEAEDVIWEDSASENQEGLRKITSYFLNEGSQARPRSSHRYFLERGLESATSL
T1 sequence (Q5TBB1 1-312 partner): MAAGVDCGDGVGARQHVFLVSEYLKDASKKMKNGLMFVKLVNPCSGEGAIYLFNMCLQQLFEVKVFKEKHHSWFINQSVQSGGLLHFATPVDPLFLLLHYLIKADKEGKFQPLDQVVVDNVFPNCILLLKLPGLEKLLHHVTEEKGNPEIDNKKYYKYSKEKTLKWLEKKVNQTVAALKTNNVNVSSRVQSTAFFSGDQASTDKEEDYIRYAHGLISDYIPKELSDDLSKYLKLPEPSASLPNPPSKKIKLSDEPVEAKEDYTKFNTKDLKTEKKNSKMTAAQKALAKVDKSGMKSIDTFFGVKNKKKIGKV
T1 sequence (Q8TDP1 1-164 partner): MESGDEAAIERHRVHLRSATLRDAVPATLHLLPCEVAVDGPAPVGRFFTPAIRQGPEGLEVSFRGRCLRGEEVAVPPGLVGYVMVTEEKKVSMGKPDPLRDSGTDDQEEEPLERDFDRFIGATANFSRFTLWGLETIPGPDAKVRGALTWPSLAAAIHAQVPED
Protocol: Briefly, a biochemical activity assay was established employing a duplex RNA/DNA oligonucleotide containing an internally quenched fluorophore and a single ribonucleotide positioned so that RNaseH2-mediated incision would lead to dissociation and de-quenching. […] To identify inhibitors, we screened several compound libraries containing a total of 71394 chemical compounds (Fig. 1c).
(a) RNaseH2 activity assay. An 80 nM RNA/DNA hybrid substrate was incubated with the indicated concentrations of RNaseH2, and fluorescence was recorded over 45 minutes. Each data point represents the average of four technical replicates. (b) RNaseH2 inhibition. […] Each data point denotes the average (± SD) of two technical replicates and was fitted to a four-parameter logistic curve. (c) High-throughput screening for RNaseH2 inhibitors. Each symbol represents one technical replicate of 71394 screening compounds, 9495 DMSO solvent controls, and 3552 no-enzyme controls. […] (d) Z’-factor of high-throughput screening assay. […] (e) Hit validation experiments on six candidate RNaseH2 inhibitors. […]
RNaseH2 activity assay was performed at room temperature in 384-well plates (black OptiPlates, PerkinElmer). […] The samples were incubated at room temperature for 20–30 min, and fluorescence was recorded using a Tecan SPARK plate reader at an excitation wavelength of 610[10] nm and emission wavelength of 670[20] nm.

[2] = biological target: T1, RNaseH2; conditions: read-out: RNaseH2 inhibition IC50, reported value; cited from earlier work

IC50 [1]: 5.6 µM
SMILES: O=C(CSc1ncnc2sc3c(c12)CCCC3)NCc1ccco1 [RHI002, N-(2-Furanylmethyl)−2-[(5,6,7,8-tetrahydro[1]benzothieno[2,3-d]pyrimidin-4-yl)thio]-acetamide]
IC50 [2]: 16 µM
